Results from patent publication US11028079B2 (ConverGene LLC, priority 2015, dated 2021).

Molecular target: T1, BRD4 bromodomains (Homo sapiens, UniProt O60885)
T1 construct: fused on or other part: T7 phage capsid protein (phage-display fusion; the phage DNA is read out by qPCR)
Test: BROMOscan bromodomain competition binding assay (DiscoveRx)
Conditions: Kd from 11 compound concentrations ranging from 0 to 10 μM, read-out: BROMOscan Relative Activity
Outline: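 Compounds in 0.1% DMSO/0.9% MEG competed with a solid-phase acetylated peptide for T7 phage-fused BRD4 bromodomains, with the retained bromodomain measured by qPCR.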

| SMILES | Kd |
| --- | --- |
| Cc1noc(C)c1-c1ccc2nc(N3CCCC(CO)C3)nc(NCc3cccc(Cl)c3)c2c1 (centres unmarked) [Example 24, (1-(4-((3-chlorobenzyl)amino)-6-(3,5-dimethylisoxazol-4-yl)quinazolin-2-yl)piperidin-3-yl)methanol] | 500 to 5000 nM |
| Cc1oncc1-c1ccc2nc(N3CCN(CCN(C)C)CC3)nc(NCc3cccc(Cl)c3)c2c1 [Example 78, N-(3-chlorobenzyl)-2-(4-(2-(dimethylamino)ethyl)piperazin-1-yl)-6-(5-methylisoxazol-4-yl)quinazolin-4-amine] | 500 to 5000 nM |
| Cc1noc(C)c1-c1ccc2nc(Cl)nc(NCc3cncc(Cl)c3)c2c1 [Example 112, 2-chloro-N-((5-chloropyridin-3-yl)methyl)-6-(3,5-dimethylisoxazol-4-yl)quinazolin-4-amine] | 500 to 5000 nM |
| Cc1noc(C)c1-c1ccc2nc(N3CCN(CCN(C)C)CC3)nc(NCc3ccco3)c2c1 [Example 79, 2-(4-(2-(dimethylamino)ethyl)piperazin-1-yl)-6-(3,5-dimethylisoxazol-4-yl)-N-(furan-2-ylmethyl)quinazolin-4-amine] | 500 to 5000 nM |
| Cc1noc(C)c1-c1ccc2nc(N3CCN(CCN(C)C)CC3)nc(NCc3ccc(F)cc3)c2c1 [Example 99, 2-(4-(2-(dimethylamino)ethyl)piperazin-1-yl)-6-(3,5-dimethylisoxazol-4-yl)-N-(4-fluorobenzyl)quinazolin-4-amine] | 500 to 5000 nM |
| Cc1noc(C)c1-c1ccc2nc(-c3cnn(CCO)c3)nc(N3CCOC[C@@H]3c3ccccc3)c2c1 [Example 306, (S)-2-(4-(6-(3,5-dimethylisoxazol-4-yl)-4-(3-phenylmorpholino)quinazolin-2-yl)-1H-pyrazol-1-yl)ethan-1-ol] | < 500 nM |
| Cc1noc(C)c1-c1ccc2nc(C(=O)N[C@H]3CC[C@H](O)CC3)nc(N3CCOC[C@@H]3c3ccccc3)c2c1 [Example 273, 6-(3,5-dimethylisoxazol-4-yl)-N-((trans)-4-hydroxycyclohexyl)-4-((S)-3-phenylmorpholino)quinazoline-2-carboxamide] | < 500 nM |
| CN(C)CCN1CCN(c2nc(NCc3cccc(Cl)c3)c3cc(-c4ccnc(O)c4)ccc3n2)CC1 [Example 96, 4-(4-((3-chlorobenzyl)amino)-2-(4-(2-(dimethylamino)ethyl)piperazin-1-yl)quinazolin-6-yl)pyridin-2-ol] | > 5000 nM |
| Cc1noc(C)c1-c1ccc2nc(-c3cnn(CC(C)(C)O)c3)nc(NCc3cncc(Cl)c3)c2c1 [Example 139, 1-(4-(4-(((5-chloropyridin-3-yl)methyl)amino)-6-(3,5-dimethylisoxazol-4-yl)quinazolin-2-yl)-1H-pyrazol-1-yl)-2-methylpropan-2-ol] | < 500 nM |
| Cc1noc(C)c1-c1ccc2nc(C(=O)N3CCc4[nH]ncc4C3)nc(NCc3cncc(Cl)c3)c2c1 [Example 284, (4-(((5-chloropyridin-3-yl)methyl)amino)-6-(3,5-dimethylisoxazol-4-yl)quinazolin-2-yl)(1,4,6,7-tetrahydro-5H-pyrazolo[4,3-c]pyridin-5-yl)methanone] | 500 to 5000 nM |
| CNC(=O)Cn1cc(-c2nc(NCc3cncc(Cl)c3)c3cc(-c4c(C)noc4C)ccc3n2)cn1 [Example 141, 2-(4-(4-(((5-chloropyridin-3-yl)methyl)amino)-6-(3,5-dimethylisoxazol-4-yl)quinazolin-2-yl)-1H-pyrazol-1-yl)-N-methylacetamide] | < 500 nM |
| Cc1noc(C)c1-c1ccc2c(NCc3cccc(Cl)c3)nc(-c3cnn(CC(N)=O)c3)nc2c1 [Example 51, 2-(4-(4-((3-chlorobenzyl)amino)-7-(3,5-dimethylisoxazol-4-yl)quinazolin-2-yl)-1H-pyrazol-1-yl)acetamide] | 500 to 5000 nM |
| Cn1cc(-c2ccc3nc(N4CCN(CC(N)=O)CC4)nc(NCc4cccc(Cl)c4)c3c2)ccc1=O [Example 108, 2-(4-(4-((3-chlorobenzyl)amino)-6-(1-methyl-6-oxo-1,6-dihydropyridin-3-yl)quinazolin-2-yl)piperazin-1-yl)acetamide] | < 500 nM |
| COc1cccc(CNc2nc(N3CCN(CCN(C)C)CC3)nc3ccc(-c4c(C)noc4C)cc23)c1 [Example 73, 2-(4-(2-(dimethylamino)ethyl)piperazin-1-yl)-6-(3,5-dimethylisoxazol-4-yl)-N-(3-methoxybenzyl)quinazolin-4-amine] | < 500 nM |
| Cn1cc(-c2ccc3nc(-c4cnn(C(C)(C)CO)c4)nc(NCc4cccc(Cl)c4)c3c2)ccc1=O [Example 105, 5-(4-((3-chlorobenzyl)amino)-2-(1-(1-hydroxy-2-methylpropan-2-yl)-1H-pyrazol-4-yl)quinazolin-6-yl)-1-methylpyridin-2(1H)-one] | < 500 nM |
| Cc1noc(C)c1-c1ccc2nc(N3CCN(CCN(C)C)CC3)nc(NCc3cccc(F)c3)c2c1 [Example 77, 2-(4-(2-(dimethylamino)ethyl)piperazin-1-yl)-6-(3,5-dimethylisoxazol-4-yl)-N-(3-fluorobenzyl)quinazolin-4-amine] | < 500 nM |
| Cc1noc(C)c1-c1ccc2nc(N3CCN(CCN(C)C)CC3)nc(N3CCCCC3c3ccccc3)c2c1 (centres unmarked) [Example 175, 2-(4-(6-(3,5-dimethylisoxazol-4-yl)-4-(2-phenylpiperidin-1-yl)quinazolin-2-yl)piperazin-1-yl)-N,N-dimethylethanamine] | < 500 nM |
| Cc1noc(C)c1-c1ccc2cc(N3CCN(CCO)CC3)nc(NCc3cccc(Cl)c3)c2c1 [Example 44, 2-(4-(1-((3-chlorobenzyl)amino)-7-(3,5-dimethylisoxazol-4-yl)isoquinolin-3-yl)piperazin-1-yl)ethanol] | 500 to 5000 nM |

Results, then the molecule that gave them:

| Kd | SMILES |
| --- | --- |
| < 500 nM | Cc1noc(C)c1-c1ccc2nc(-c3cnn(CC(N)=O)c3)nc(NCc3cccc(Cl)c3)c2c1 [Example 50, 2-(4-(4-((3-chlorobenzyl)amino)-6-(3,5-dimethylisoxazol-4-yl)quinazolin-2-yl)-1H-pyrazol-1-yl)acetamide] |
| < 500 nM | Cc1ccncc1CNC(=O)c1nc(NCc2cccc(Cl)c2)c2cc(-c3c(C)noc3C)ccc2n1 [Example 187, 4-((3-chlorobenzyl)amino)-6-(3,5-dimethylisoxazol-4-yl)-N-((4-methylpyridin-3-yl)methyl)quinazoline-2-carboxamide] |
| < 500 nM | Cc1noc(C)c1-c1ccc2nc(C(=O)NC3CCN(C)CC3)cc(NCc3cccc(Cl)c3)c2c1 [Example 228, 4-((3-chlorobenzyl)amino)-6-(3,5-dimethylisoxazol-4-yl)-N-(1-methylpiperidin-4-yl)quinoline-2-carboxamide] |
| < 500 nM | Cc1nc(CNC(=O)c2nc(NCc3cccc(Cl)c3)c3cc(-c4c(C)noc4C)ccc3n2)cs1 [Example 196, 4-((3-chlorobenzyl)amino)-6-(3,5-dimethylisoxazol-4-yl)-N-((2-methylthiazol-4-yl)methyl)quinazoline-2-carboxamide] |
| < 500 nM | Cc1noc(C)c1-c1ccc2nc(N3CCN(S(C)(=O)=O)CC3)nc(NC3(c4cccc(Cl)c4)CC3)c2c1 [Example 180, N-(1-(3-chlorophenyl)cyclopropyl)-6-(3,5-dimethylisoxazol-4-yl)-2-(4-(methylsulfonyl)piperazin-1-yl)quinazolin-4-amine] |
| < 500 nM | Cn1cc(C(=O)N2CCN(c3nc(NCc4cccc(Cl)c4)c4cc(-c5ccc(=O)n(C)c5)ccc4n3)CC2)cn1 [Example 122, 5-(4-((3-chlorobenzyl)amino)-2-(4-(1-methyl-1H-pyrazole-4-carbonyl)piperazin-1-yl)quinazolin-6-yl)-1-methylpyridin-2(1H)-one] |
| < 500 nM | Cc1noc(C)c1-c1ccc2nc(C(=O)NC3CCN(C)CC3)nc(N3CCOC[C@@H]3c3ccccc3)c2c1 [Example 280, (S)-6-(3,5-dimethylisoxazol-4-yl)-N-(1-methylpiperidin-4-yl)-4-(3-phenylmorpholino)quinazoline-2-carboxamide] |
| < 500 nM | COc1ccccc1CNc1nc(N2CCN(CCN(C)C)CC2)nc2ccc(-c3c(C)noc3C)cc12 [Example 72, 2-(4-(2-(dimethylamino)ethyl)piperazin-1-yl)-6-(3,5-dimethylisoxazol-4-yl)-N-(2-methoxybenzyl)quinazolin-4-amine] |
| < 500 nM | Cc1noc(C)c1-c1ccc2nc(-n3cc(CCO)cn3)nc(NCc3cccc(Cl)c3)c2c1 [Example 42, 2-(1-(4-((3-chlorobenzyl)amino)-6-(3,5-dimethylisoxazol-4-yl)quinazolin-2-yl)-1H-pyrazol-4-yl)ethanol] |
| < 500 nM | Cc1csc(CNC(=O)c2nc(NCc3cccc(Cl)c3)c3cc(-c4c(C)noc4C)ccc3n2)n1 [Example 214, 4-((3-chlorobenzyl)amino)-6-(3,5-dimethylisoxazol-4-yl)-N-((4-methylthiazol-2-yl)methyl)quinazoline-2-carboxamide] |
| < 500 nM | Cc1noc(C)c1-c1ccc2nc(C(=O)NC3CN(C)C3)nc(NCc3cncc(Cl)c3)c2c1 [Example 237, 4-(((5-chloropyridin-3-yl)methyl)amino)-6-(3,5-dimethylisoxazol-4-yl)-N-(1-methylazetidin-3-yl)quinazoline-2-carboxamide] |
| < 500 nM | Cc1noc(C)c1-c1ccc2nc(C(=O)NCc3ccnc(Cl)c3)nc(NCc3cncc(Cl)c3)c2c1 [Example 206, 4-(((5-chloropyridin-3-yl)methyl)amino)-N-((2-chloropyridin-4-yl)methyl)-6-(3,5-dimethylisoxazol-4-yl)quinazoline-2-carboxamide] |
| < 500 nM | Cc1noc(C)c1-c1ccc2nc(N3CCN(CCCN(C)C)CC3)nc(NCc3cncc(Cl)c3)c2c1 [Example 130, N-((5-chloropyridin-3-yl)methyl)-2-(4-(3-(dimethylamino)propyl)piperazin-1-yl)-6-(3,5-dimethylisoxazol-4-yl)quinazolin-4-amine] |
| < 500 nM | Cc1noc(C)c1-c1ccc2nc(-c3cnn(CC(C)(C)O)c3)nc(N3CCN(C(=O)NC4CC4)C[C@@H]3c3ccccc3)c2c1 [Example 322, (S)—N-cyclopropyl-4-(6-(3,5-dimethylisoxazol-4-yl)-2-(1-(2-hydroxy-2-methylpropyl)-1H-pyrazol-4-yl)quinazolin-4-yl)-3-phenylpiperazine-1-carboxamide] |
